# Measured values reported in US6613718B2, “Aryl ether derivatives and processes for their preparation and herbicidal and desiccant compositions containing them” (Ishihara Sangyo Kaisha, Ltd., priority 2001, dated 2003).
# Key:
# Assay type in all cases: in vivo
# [1] = test system: upland rice (Oryza sp., var.Tebonnet, RICE); assay: Pre-emerge greenhouse screening, crop safety (phytotoxicity rating); conditions: 14 days after application
# Description: (§1) A standard greenhouse herbicide activity screening system was used to evaluate the herbicidal efficacy and crop safety of these test compounds. Seven broadleaf weed species including redroot pigweed (Amaranthus retroflexus, AMARE), velvetleaf (Abutilon theophrasti, ABUTH), sicklepod (Cassia obtusifolia, CASOB), ivyleaf morningglory (Ipomoea hederacea, IPOHE), lambsquarters (Chenopodium album, CHEAL), common ragweed (Ambrosia artemisiifolia L., AMBEL), and cocklebur (Xanthium strumarium, XANST) were used as test species. Four grass weed species including green foxtail (Setaria viridis, SETVI), barnyardgrass (Echinochloa crus-galli, ECHCG), johnsongrass (Sorghum halepense, SORHA), and large crabgrass (Digitaria sanguinalis, DIGSA) were also used. In addition, three crop species, field corn (Zea mays L., var. Dekalb 535, CORN), soybean (Glycine max L., var. Pella 86, SOY), and upland rice (Oryza sp., var.Tebonnet, RICE) were included.
# (§2) All plants were grown in 10 cm square plastic pots which were filled with a sandy loam soil mix. For pre-emerge tests, seeds were planted one day prior to application of the test compounds. For post-emerge tests, seeds were planted 8-21 days prior to the test to allow emergence and good foliage development prior to application of the test substances. At the time of the post-emerge application, plants of all species were usually at the 2-3 leaf stage of development.
# (§3) All test compounds were dissolved in acetone and applied to the test units in a volume of 187 1/ha. Test materials were applied at rates ranging from 15 g ai/ha to 1000 g ai/ha using a track sprayer equipped with a TJ8001E even flow flat fan spray nozzle. Plants were arranged on a shelf so that the top of the canopy (post-emerge) or top of the soil surface (pre-emerge) was 40-45 cm below the nozzle. Pressurized air was used to force the test solution through the nozzle as it was mechanically advanced (via electrically driven chain drive) over the top of all test plants/pots. This application simulates a typical commercial field herbicide application.
# (§4) In the post-emerge test, a commercial non-ionic surfactant was also included (0.25% v/v) to enhance wetting of the leaf surfaces of target plants. Immediately after application, test units of the pre-emerge applications were watered at the soil surface to incorporate the test materials. Subsequently, these test units were bottom-watered. Post-emerge test units were always bottom-watered.
# (§5) At 14 days after application of the test materials, phytotoxicity ratings were recorded. A rating scale of 0-100 was used as previously described in Research Methods in Weed Science, 2nd edition, B. Truelove, Ed., Southern Weed Science Society, Auburn University, Auburn, Ala., 1977. Briefly, “0” corresponds to no damage and “100” corresponds to complete death of all plants in the test unit. This scale was used both to determine efficacy against weed species and damage to crop species. Herbicide activity data for various compounds of this invention, which are shown by compound No. in Tables I-VI, are shown in Tables VIII-IX.
# [2] = test system: soybean (Glycine max L., var. Pella 86, SOY); assay: as above; conditions: 14 days after application
# Description: as §1, §2, §3, §4, §5
# [3] = test system: field corn (Zea mays L., var. Dekalb 535, CORN); assay: as above; conditions: 14 days after application
# Description: as §1, §2, §3, §4, §5
# [4] = test system: field corn (Zea mays L., var. Dekalb 535, CORN); assay: Post-emerge greenhouse screening, crop safety / corn selectivity (phytotoxicity rating); conditions: 14 days after application
# Description: as §1, §2, §3, §4, §5
# [5] = test system: green foxtail (Setaria viridis, SETVI); assay: Post-emerge greenhouse herbicide activity screening, phytotoxicity rating
# Description: as §1, §2, §3, §4, §5
# [6] = test system: large crabgrass (Digitaria sanguinalis, DIGSA); assay: as above; conditions: 14 days after application
# Description: as §1, §2, §3, §4, §5
# [7] = test system: sicklepod (Cassia obtusifolia, CASOB); assay: as above
# Description: as §1, §2, §3, §4, §5
# [8] = test system: redroot pigweed (Amaranthus retroflexus, AMARE); assay: as above
# Description: as §1, §2, §3, §4, §5
# [9] = test system: lambsquarters (Chenopodium album, CHEAL); assay: as above
# Description: as §1, §2, §3, §4, §5
# [10] = test system: velvetleaf (Abutilon theophrasti, ABUTH); assay: as above; conditions: 14 days after application
# Description: as §1, §2, §3, §4, §5
# [11] = test system: johnsongrass (Sorghum halepense, SORHA); assay: as above; conditions: 14 days after application
# Description: as §1, §2, §3, §4, §5
# [12] = test system: ivyleaf morningglory (Ipomoea hederacea, IPOHE); assay: as above; conditions: 14 days after application
# Description: as §1, §2, §3, §4, §5
# [13] = test system: barnyardgrass (Echinochloa crus-galli, ECHCG); assay: as above; conditions: 14 days after application
# Description: as §1, §2, §3, §4, §5
# [14] = test system: common ragweed (Ambrosia artemisiifolia L., AMBEL); assay: as above
# Description: as §1, §2, §3, §4, §5
# [15] = test system: upland rice (Oryza sp., var.Tebonnet, RICE); assay: Post-emerge greenhouse screening, crop safety (phytotoxicity rating); conditions: 14 days after application
# Description: as §1, §2, §3, §4, §5
# [16] = test system: soybean (Glycine max L., var. Pella 86, SOY); assay: as above; conditions: 14 days after application
# Description: as §1, §2, §3, §4, §5
# [17] = test system: green foxtail (Setaria viridis, SETVI); assay: Pre-emerge greenhouse herbicide activity screening, phytotoxicity rating; conditions: 14 days after application
# Description: as §1, §2, §3, §4, §5
# [18] = test system: large crabgrass (Digitaria sanguinalis, DIGSA); assay: as above; conditions: 14 days after application
# Description: as §1, §2, §3, §4, §5
# [19] = test system: sicklepod (Cassia obtusifolia, CASOB); assay: as above; conditions: 14 days after application
# Description: as §1, §2, §3, §4, §5
# [20] = test system: redroot pigweed (Amaranthus retroflexus, AMARE); assay: as above; conditions: 14 days after application
# Description: as §1, §2, §3, §4, §5
# [21] = test system: lambsquarters (Chenopodium album, CHEAL); assay: as above; conditions: 14 days after application
# Description: as §1, §2, §3, §4, §5
# [22] = test system: velvetleaf (Abutilon theophrasti, ABUTH); assay: as above; conditions: 14 days after application
# Description: as §1, §2, §3, §4, §5
# [23] = test system: johnsongrass (Sorghum halepense, SORHA); assay: as above; conditions: 14 days after application
# Description: as §1, §2, §3, §4, §5
# [24] = test system: ivyleaf morningglory (Ipomoea hederacea, IPOHE); assay: as above; conditions: 14 days after application
# Description: as §1, §2, §3, §4, §5
# [25] = test system: barnyardgrass (Echinochloa crus-galli, ECHCG); assay: as above; conditions: 14 days after application
# Description: as §1, §2, §3, §4, §5
# [26] = test system: common ragweed (Ambrosia artemisiifolia L., AMBEL); assay: as above; conditions: 14 days after application
# Description: as §1, §2, §3, §4, §5
# [27] = 125 g ai/ha, 14 days after application
# [28] = 250 g ai/ha, 14 days after application
smiles,measurement,setting,value
Cn1c(C(F)(F)F)cc(=O)n(-c2cc(Oc3ccccc3N)c(Cl)cc2F)c1=S [Compound 1-48],"RICE crop damage, phytotoxicity rating (0-100 scale)",[1]; 125 g ai/ha,0
same,"RICE crop damage, phytotoxicity rating (0-100 scale)",[1]; 250 g ai/ha,8
same,"SOY crop damage, phytotoxicity rating (0-100 scale)",[2]; 125 g ai/ha,0
same,"SOY crop damage, phytotoxicity rating (0-100 scale)",[2]; 250 g ai/ha,0
same,"CORN crop damage, phytotoxicity rating (0-100 scale)",[3]; 125 g ai/ha,0
same,"CORN crop damage, phytotoxicity rating (0-100 scale)",[3]; 250 g ai/ha,5
same,"CORN crop damage, phytotoxicity rating (0-100 scale)",[4]; 125 g ai/ha,0
same,"CORN crop damage, phytotoxicity rating (0-100 scale)",[4]; 250 g ai/ha,10
same,SETVI phytotoxicity rating (0-100 scale),[5]; 31.3 g ai/ha,0
same,SETVI phytotoxicity rating (0-100 scale),[5]; 62.5 g ai/ha,30
same,SETVI phytotoxicity rating (0-100 scale),[5]; [27],50
same,SETVI phytotoxicity rating (0-100 scale),[5]; [28],60
same,DIGSA phytotoxicity rating (0-100 scale),[6]; 125 g ai/ha,25
same,DIGSA phytotoxicity rating (0-100 scale),[6]; 250 g ai/ha,50
same,CASOB phytotoxicity rating (0-100 scale),[7]; 31.3 g ai/ha,50
same,CASOB phytotoxicity rating (0-100 scale),[7]; 62.5 g ai/ha,75
same,CASOB phytotoxicity rating (0-100 scale),[7]; [27],75
same,CASOB phytotoxicity rating (0-100 scale),[7]; [28],75
same,AMARE phytotoxicity rating (0-100 scale),[8]; 31.3 g ai/ha,100
same,AMARE phytotoxicity rating (0-100 scale),[8]; 62.5 g ai/ha,100
same,AMARE phytotoxicity rating (0-100 scale),[8]; [27],100
same,AMARE phytotoxicity rating (0-100 scale),[8]; [28],100
same,CHEAL phytotoxicity rating (0-100 scale),[9]; 31.3 g ai/ha,80
same,CHEAL phytotoxicity rating (0-100 scale),[9]; 62.5 g ai/ha,99
same,CHEAL phytotoxicity rating (0-100 scale),[9]; [27],100
same,CHEAL phytotoxicity rating (0-100 scale),[9]; [28],100
same,ABUTH phytotoxicity rating (0-100 scale),[10]; 125 g ai/ha,85
same,ABUTH phytotoxicity rating (0-100 scale),[10]; 250 g ai/ha,95
same,SORHA phytotoxicity rating (0-100 scale),[11]; 125 g ai/ha,0
same,SORHA phytotoxicity rating (0-100 scale),[11]; 250 g ai/ha,0
same,IPOHE phytotoxicity rating (0-100 scale),[12]; 125 g ai/ha,80
same,IPOHE phytotoxicity rating (0-100 scale),[12]; 250 g ai/ha,75
same,ECHCG phytotoxicity rating (0-100 scale),[13]; 125 g ai/ha,0
same,ECHCG phytotoxicity rating (0-100 scale),[13]; 250 g ai/ha,0
same,AMBEL phytotoxicity rating (0-100 scale),[14]; 31.3 g ai/ha,60
same,AMBEL phytotoxicity rating (0-100 scale),[14]; 62.5 g ai/ha,50
same,AMBEL phytotoxicity rating (0-100 scale),[14]; [27],60
same,AMBEL phytotoxicity rating (0-100 scale),[14]; [28],75
same,"RICE crop damage, phytotoxicity rating (0-100 scale)",[15]; 125 g ai/ha,0
same,"RICE crop damage, phytotoxicity rating (0-100 scale)",[15]; 250 g ai/ha,35
same,"SOY crop damage, phytotoxicity rating (0-100 scale)",[16]; 125 g ai/ha,0
same,"SOY crop damage, phytotoxicity rating (0-100 scale)",[16]; 250 g ai/ha,0
same,SETVI phytotoxicity rating (0-100 scale),[17]; 125 g ai/ha,90
same,SETVI phytotoxicity rating (0-100 scale),[17]; 250 g ai/ha,99
same,DIGSA phytotoxicity rating (0-100 scale),[18]; 125 g ai/ha,55
same,DIGSA phytotoxicity rating (0-100 scale),[18]; 250 g ai/ha,75
same,CASOB phytotoxicity rating (0-100 scale),[19]; 125 g ai/ha,0
same,CASOB phytotoxicity rating (0-100 scale),[19]; 250 g ai/ha,0
same,AMARE phytotoxicity rating (0-100 scale),[20]; 125 g ai/ha,100
same,AMARE phytotoxicity rating (0-100 scale),[20]; 250 g ai/ha,100
same,CHEAL phytotoxicity rating (0-100 scale),[21]; 125 g ai/ha,100
same,CHEAL phytotoxicity rating (0-100 scale),[21]; 250 g ai/ha,100
same,ABUTH phytotoxicity rating (0-100 scale),[22]; 125 g ai/ha,90
same,ABUTH phytotoxicity rating (0-100 scale),[22]; 250 g ai/ha,100
same,SORHA phytotoxicity rating (0-100 scale),[23]; 125 g ai/ha,55
same,SORHA phytotoxicity rating (0-100 scale),[23]; 250 g ai/ha,85
same,IPOHE phytotoxicity rating (0-100 scale),[24]; 125 g ai/ha,80
same,IPOHE phytotoxicity rating (0-100 scale),[24]; 250 g ai/ha,100
same,ECHCG phytotoxicity rating (0-100 scale),[25]; 125 g ai/ha,80
same,ECHCG phytotoxicity rating (0-100 scale),[25]; 250 g ai/ha,85
same,AMBEL phytotoxicity rating (0-100 scale),[26]; 125 g ai/ha,70
same,AMBEL phytotoxicity rating (0-100 scale),[26]; 250 g ai/ha,70
